Reference: US20250154169A1, “COMPOUNDS AND METHODS FOR MODULATING SPLICING” (REMIX THERAPEUTICS INC., priority 2021, published 2025)
pIC50: −log10 of the molar value. Counter-ions that a name gives are not always drawn. Like-named read-outs stand apart in the source and are kept apart here.

What was measured:
Assay type in all cases: cell-based, human
HTT mRNA [1] = experiment: Splicing RT-qPCR assay, HTT canonical (CJ) and alternative (AJ) junction mRNA; conditions: Homo sapiens, A673 or K562 cells, 24 hours compound treatment; for pIC50: 24 h, read-out: HTT CJ (IC50, decrease in canonical junction mRNA); for AC50: read-out: HTT AJ (AC50, increase in alternative junction mRNA)
Outline: (§1)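 A673 or K562 cells were treated 24 h at 37 °C with an 11-point 3-fold compound dilution series (top 10 uM, DMSO ≤0.25%). Lysates went to one-step RT-qPCR measuring canonical (CJ) and alternative-exon (AJ) junction transcripts, normalized to GAPDH, GUSB or PPIA.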

MYB mRNA = experiment: Splicing RT-qPCR assay, MYB canonical (CJ) and alternative (AJ) junction mRNA; conditions: Homo sapiens; for AC50: read-out: MYB AJ (AC50, increase in alternative junction mRNA)
Outline: as §1

SMN2 mRNA = experiment: Splicing RT-qPCR gene panel, SMN2 canonical junction (CJ) mRNA; conditions: Homo sapiens, Tables 4A/4B, read-out: SMN2 (IC50, decrease in CJ mRNA, gene panel)
Outline: (§2)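 A673/K562, 24 h cpd, 11-pt 3-fold from 10 uM, DMSO ≤0.25%. Lysis, direct RT-qPCR of CJ isoform, ≥duplicate. GAPDH/GUSB/PPIA norm, ΔΔCt vs DMSO → RQ → % response.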

HTT mRNA [2] = experiment: Splicing RT-qPCR gene panel, HTT canonical junction (CJ) mRNA; conditions: Homo sapiens, Tables 4A/4B, read-out: HTT (IC50, decrease in CJ mRNA, gene panel)
Outline: as §2

Target C mRNA = experiment: Splicing RT-qPCR gene panel, Target C canonical junction (CJ) mRNA; conditions: Homo sapiens, Tables 4A/4B, read-out: Target C (IC50, decrease in CJ mRNA, gene panel)
Outline: as §2

[3] = 24 h, A673 or K562 cells, 24 hours compound treatment, RT-qPCR
[4] = 24 h, A673 or K562 cells, 24 hours compound treatment, RT-qPCR, read-out: MYB CJ (IC50, decrease in canonical junction mRNA)
[5] = Tables 4A/4B, canonical junction qPCR panel, read-out: MYB (IC50, decrease in CJ mRNA, gene panel)

Row | SMILES | pIC50 (HTT mRNA [1]) | AC50 (HTT mRNA [1]) [nM] | AC50 (MYB mRNA; [3]) [nM] | pIC50 (MYB mRNA; [4]) | pIC50 (MYB mRNA; [5]) | pIC50 (SMN2 mRNA) | pIC50 (HTT mRNA [2]) | pIC50 (Target C mRNA)
1 | Cc1cn2cc(NC(=O)c3ccc(N4C[C@@H](C)N[C@@H](C)C4)c4cn(C)nc34)cc(F)c2n1 [Compound 326, 4-[(3R,5S)-3,5-dimethylpiperazin-1-yl]-N-{8-fluoro-2-methylimidazo[1,2-a]pyridin-6-yl}-2-methylindazole-7-carboxamide] | 6.00 to 7.00 | 100 to 1000 | < 100 | > 7.00 | > 7.00 | > 7.00 | 6.00 to 7.00 | 5.00 to 6.00
2 | Cc1cn2cc(NC(=O)c3ccc(N4CCC(CN)C4)c4cn(C)nc34)cc(F)c2n1 (stereo not drawn) [Compound 327, 4-[3-(aminomethyl)pyrrolidin-1-yl]-N-{8-fluoro-2-methylimidazo[1,2-a]pyridin-6-yl}-2-methylindazole-7-carboxamide] | < 5.00 | > 10000 | 100 to 1000 | 6.00 to 7.00 | 6.00 to 7.00 | 6.00 to 7.00 | < 5.00 | < 5.00
3 | CC(=O)NC1CCN(c2ccc(C(=O)Nc3cc(F)c4nc(C)cn4c3)c3nn(C)cc23)CC1 [Compound 328, 4-(4-acetamidopiperidin-1-yl)-N-{8-fluoro-2-methylimidazo[1,2-a]pyridin-6-yl}-2-methylindazole-7-carboxamide] | < 5.00 | > 10000 | > 10000 | 5.00 to 6.00 | 5.00 to 6.00 | 6.00 to 7.00 | < 5.00 | < 5.00
4 | Cc1cn2cc(NC(=O)c3ccc(N4CCNCC4)c4cn(CC(O)CO)nc34)cc(F)c2n1 (stereo not drawn) [Compound 329, 2-(2,3-dihydroxypropyl)-N-{8-fluoro-2-methylimidazo[1,2-a]pyridin-6-yl}-4-(piperazin-1-yl)indazole-7-carboxamide] | < 5.00 | > 10000 | > 10000 | < 5.00 | < 5.00 | 5.00 to 6.00 | < 5.00 | < 5.00
5 | CCN(CC)C1CCN(c2ccc(C(=O)Nc3cc(F)c4nc(C)cn4c3)c3nn(CCOC)cc23)C1 (stereo not drawn) [Compound 330, 4-(3-(diethylamino)pyrrolidin-1-yl)-N-(8-fluoro-2-methylimidazo[1,2-a]pyridin-6-yl)-2-(2-methoxyethyl)-2H-indazole-7-carboxamide compound with 2,2,2-trifluoro-113-ethan-1-one] | < 5.00 | > 10000 | 100 to 1000 | 6.00 to 7.00 | 6.00 to 7.00 | > 7.00 | < 5.00 | < 5.00
6 | Cc1nc2c(F)cc(NC(=O)c3ccc(N4CCNCC4)c4cn(C)nc34)cc2n1C [Compound 332, N-(7-fluoro-2,3-dimethyl-1,3-benzodiazol-5-yl)-2-methyl-4-(piperazin-1-yl) indazole-7-carboxamide; trifluoroacetic acid] | < 5.00 | > 10000 | > 10000 | < 5.00 | < 5.00 | < 5.00 | < 5.00 | < 5.00
7 | Cc1cn2cc(NC(=O)c3ccc(N4CCNCC4)c4cn(C)nc34)c(F)cc2n1 [Compound 333, N-{7-fluoro-2-methylimidazo[1,2-a]pyridin-6-yl}-2-methyl-4-(piperazin-1-yl) indazole-7-carboxamide trifluoroacetate] | 5.00 to 6.00 | 1000 to 10000 | 100 to 1000 | 6.00 to 7.00 | 6.00 to 7.00 | > 7.00 | 5.00 to 6.00 | < 5.00
8 | Cc1cn2cc(NC(=O)c3ccc(N4C[C@@H](C)N[C@@H](C)C4)c4cn(C)nc34)nc(C)c2n1 [Compound 334, N-{2,8-dimethylimidazo[1,2-a]pyrazin-6-yl}-4-[(3R,5S)-3,5-dimethylpiperazin-1-yl]-2-methylindazole-7-carboxamide] | < 5.00 | > 10000 | 100 to 1000 | 6.00 to 7.00 | 6.00 to 7.00 | > 7.00 | < 5.00 | < 5.00
9 | Cc1cn2cc(NC(=O)c3ccc(N4CCC(CN)CC4)c4cn(C)nc34)cc(F)c2n1 [Compound 335, 4-[4-(aminomethyl)piperidin-1-yl]-N-{8-fluoro-2-methylimidazo[1,2-a]pyridin-6-yl}-2-methylindazole-7-carboxamide] | < 5.00 | > 10000 | 1000 to 10000 | 5.00 to 6.00 | 5.00 to 6.00 | 6.00 to 7.00 | < 5.00 | < 5.00
10 | Cc1cn2cc(NC(=O)c3ccc(N4CCC(C)(N)CC4)c4cn(C)nc34)cc(F)c2n1 [Compound 336, 4-(4-amino-4-methylpiperidin-1-yl)-N-{8-fluoro-2-methylimidazo[1,2-a]pyridin-6-yl}-2-methylindazole-7-carboxamide] | 6.00 to 7.00 | 100 to 1000 | < 100 | > 7.00 | > 7.00 | > 7.00 | 6.00 to 7.00 | 6.00 to 7.00
11 | Cc1cn2cc(NC(=O)c3ccc(N4CCNCC4)c4cn(CCCl)nc34)cc(F)c2n1 [Compound 337, 2-(2-chloroethyl)-N-{8-fluoro-2-methylimidazo[1,2-a]pyridin-6-yl}-4-(piperazin-1-yl)indazole-7-carboxamide] | 5.00 to 6.00 | 1000 to 10000 | 100 to 1000 | 6.00 to 7.00 | 6.00 to 7.00 | > 7.00 | 5.00 to 6.00 | < 5.00
12 | Cc1cn2cc(NC(=O)c3ccc(N4CCNCC4)c4cn(CC5CCO5)nc34)cc(F)c2n1 (stereo not drawn) [Compound 338, N-{8-fluoro-2-methylimidazo[1,2-a]pyridin-6-yl}-2-(oxetan-2-ylmethyl)-4-(piperazin-1-yl)indazole-7-carboxamide] | 5.00 to 6.00 | 1000 to 10000 | 100 to 1000 | 6.00 to 7.00 | 6.00 to 7.00 | > 7.00 | 5.00 to 6.00 | < 5.00
13 | CC(=O)Cn1cc2c(N3CCNCC3)ccc(C(=O)Nc3cc(F)c4nc(C)cn4c3)c2n1 [Compound 339, N-{8-fluoro-2-methylimidazo[1,2-a]pyridin-6-yl}-2-(2-oxopropyl)-4-(piperazin-1-yl)indazole-7-carboxamide] | < 5.00 | > 10000 | 1000 to 10000 | 5.00 to 6.00 | 5.00 to 6.00 | 6.00 to 7.00 | < 5.00 | < 5.00
14 | Cc1cn2cc(NC(=O)c3ccc(N4CCNCC4)c4cn(Cc5ccc6[nH]ncc6c5)nc34)cc(F)c2n1 [Compound 340, N-{8-fluoro-2-methylimidazo[1,2-a]pyridin-6-yl}-2-(1H-indazol-5-ylmethyl)-4-(piperazin-1-yl) indazole-7-carboxamide trifluoroacetate] | < 5.00 | > 10000 | 1000 to 10000 | 5.00 to 6.00 | 5.00 to 6.00 | 6.00 to 7.00 | < 5.00 | < 5.00
15 | Cc1cn2cc(NC(=O)c3ccc(N4CCNCC4)c4cn(Cc5cn[nH]c5)nc34)cc(F)c2n1 [Compound 341, N-{8-fluoro-2-methylimidazo[1,2-a]pyridin-6-yl}-4-(piperazin-1-yl)-2-(1H-pyrazol-4-ylmethyl)indazole-7-carboxamide] | < 5.00 | > 10000 | 1000 to 10000 | 5.00 to 6.00 | 5.00 to 6.00 | 6.00 to 7.00 | < 5.00 | < 5.00
16 | Cc1cn2cc(NC(=O)c3ccc(N4CCNCC4)c4cn(C)nc34)[nH]c(=O)c2n1 [Compound 342, N-{8-hydroxy-2-methylimidazo[1,2-a]pyrazin-6-yl}-2-methyl-4-(piperazin-1-yl) indazole-7-carboxamide] | < 5.00 | > 10000 | > 10000 | 5.00 to 6.00 | 5.00 to 6.00 | < 5.00 | < 5.00 | < 5.00
17 | COc1c(NC(=O)c2ccc(N3CCNCC3)c3cn(C)nc23)cn2cc(C)nc2c1F [Compound 343, N-{8-fluoro-7-methoxy-2-methylimidazo[1,2-a]pyridin-6-yl}-2-methyl-4-(piperazin-1-yl) indazole-7-carboxamide] | > 7.00 | < 100 | < 100 | > 7.00 | > 7.00 | > 7.00 | > 7.00 | 6.00 to 7.00
18 | COc1c(NC(=O)c2ccc(N3CCNCC3)c3cn(C)nc23)cc2cn(C)nc2c1C [Compound 344, N-(6-methoxy-2,7-dimethylindazol-5-yl)-2-methyl-4-(piperazin-1-yl) indazole-7-carboxamide trifluoroacetate] | < 5.00 | > 10000 | 1000 to 10000 | 5.00 to 6.00 | 5.00 to 6.00 | 6.00 to 7.00 | < 5.00 | < 5.00
